Experimental data taken from patent US20100022531A1, “NOVEL COMPOUNDS AS P2X7 MODULATORS AND USES THEREOF” (RENOVIS, INC., priority 2005, published 2010).

Target: T1, P2X7 receptor (Homo sapiens, UniProt Q99572)
T1 construct: host or cells: THP-1 cells differentiated with LPS and IFN-γ
T1 sequence (Q99572 1-595): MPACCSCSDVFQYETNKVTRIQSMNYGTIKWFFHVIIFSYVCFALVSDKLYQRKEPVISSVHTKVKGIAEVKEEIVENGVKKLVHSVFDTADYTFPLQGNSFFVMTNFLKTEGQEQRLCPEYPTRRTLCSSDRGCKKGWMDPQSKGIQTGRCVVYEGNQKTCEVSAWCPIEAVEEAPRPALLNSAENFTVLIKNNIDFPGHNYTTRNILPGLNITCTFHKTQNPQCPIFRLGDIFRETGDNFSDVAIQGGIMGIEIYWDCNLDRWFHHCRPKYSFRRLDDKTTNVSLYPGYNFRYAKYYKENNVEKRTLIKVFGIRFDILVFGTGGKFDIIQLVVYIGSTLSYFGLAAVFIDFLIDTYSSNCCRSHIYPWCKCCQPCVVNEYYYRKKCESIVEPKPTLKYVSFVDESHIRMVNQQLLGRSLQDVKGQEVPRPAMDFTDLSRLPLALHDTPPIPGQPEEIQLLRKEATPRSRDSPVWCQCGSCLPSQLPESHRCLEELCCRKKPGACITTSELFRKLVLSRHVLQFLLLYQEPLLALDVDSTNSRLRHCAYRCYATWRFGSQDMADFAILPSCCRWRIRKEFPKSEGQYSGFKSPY
Experiment: Alternate method for IL-1β release assay (differentiated THP-1 cells, BzATP-stimulated, ELISA)
Assay type: cell-based
Settings: P2X7; for inhibition at 0.3 µM: 0.3 μM compound (symbols * to ****), read-out: IL-1β % inhib @ 0.3 μM; for inhibition at 0.1 µM: 0.1 μM compound (symbols + to ++++), read-out: IL-1β % inhib @ 0.1 μM
Method in brief: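 After 16 h differentiation with 100 ng/mL LPS and 100 ng/mL IFN-γ plus a further 2 h LPS priming, THP-1 cells were pretreated 30 min with compound, then stimulated with 250 uM BzATP (final) for 45 min. Supernatant IL-1β measured by ELISA; percent inhibition from background-adjusted levels versus untreated cells.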

Row | SMILES | inhibition at 0.3 µM [%] | inhibition at 0.1 µM [%]
1 | CN(C)CCCN(C)CC(=O)N1CCc2c(ncnc2NCC2C3CC4CC(C3)CC2C4)C1 (stereo not drawn) [Compound 276] | 0 to 25 | 
2 | CN(CCC#N)CC(=O)N1CCc2c(ncnc2NCC2C3CC4CC(C3)CC2C4)C1 (stereo not drawn) [Compound 277] | 0 to 25 | 
3 | CCN1CCN(CC(=O)N2CCc3c(ncnc3NCC3C4CC5CC(C4)CC3C5)C2)CC1 (stereo not drawn) [Compound 278] | 25 to 50 | 
4 | CN(CCc1ccccn1)CC(=O)N1CCc2c(ncnc2NCC2C3CC4CC(C3)CC2C4)C1 (stereo not drawn) [Compound 279] | 50 to 75 | 
5 | CCN(C)CC(=O)N1CCc2c(ncnc2NCC2C3CC4CC(C3)CC2C4)C1 (stereo not drawn) [Compound 282] | 0 to 25 | 
6 | O=C(CN1CCC1)N1CCc2c(ncnc2NCC2C3CC4CC(C3)CC2C4)C1 (stereo not drawn) [Compound 283] | 0 to 25 | 
7 | CN(CCc1ccccc1)CC(=O)N1CCc2c(ncnc2NCC2C3CC4CC(C3)CC2C4)C1 (stereo not drawn) [Compound 284] | > 75 | 
8 | CC(C)N1CCN(CC(=O)N2CCc3c(ncnc3NCC3C4CC5CC(C4)CC3C5)C2)CC1 (stereo not drawn) [Compound 285] | 0 to 25 | 
9 | CCCCN(C)CC(=O)N1CCc2c(ncnc2NCC2C3CC4CC(C3)CC2C4)C1 (stereo not drawn) [Compound 288] | 50 to 75 | 
10 | CN1CCC(NCC(=O)N2CCc3c(ncnc3NCC3C4CC5CC(C4)CC3C5)C2)CC1 (stereo not drawn) [Compound 289] | 0 to 25 | 
11 | CC1CCN(CC(=O)N2CCc3c(ncnc3NCC3C4CC5CC(C4)CC3C5)C2)CC1 (stereo not drawn) [Compound 292] | 25 to 50 | 
12 | O=C(CN1CCC(c2ccccc2)CC1)N1CCc2c(ncnc2NCC2C3CC4CC(C3)CC2C4)C1 (stereo not drawn) [Compound 294] | 0 to 25 | 
13 | CN(CC(=O)N1CCc2c(ncnc2NCC2C3CC4CC(C3)CC2C4)C1)Cc1ccco1 (stereo not drawn) [Compound 295] | 0 to 25 | 
14 | COc1ccc(CN(C)CC(=O)N2CCc3c(ncnc3NCC3C4CC5CC(C4)CC3C5)C2)cc1OC (stereo not drawn) [Compound 296] | 0 to 25 | 
15 | COc1ccc(CCN(C)CC(=O)N2CCc3c(ncnc3NCC3C4CC5CC(C4)CC3C5)C2)cc1OC (stereo not drawn) [Compound 297] | 0 to 25 | 
16 | O=C(CN1CCC(N2CCOCC2)CC1)N1CCc2c(ncnc2NCC2C3CC4CC(C3)CC2C4)C1 (stereo not drawn) [Compound 299] | 25 to 50 | 
17 | O=C(CN1CCC(C(F)(F)F)CC1)N1CCc2c(ncnc2NCC2C3CC4CC(C3)CC2C4)C1 (stereo not drawn) [Compound 300] | 0 to 25 | 
18 | O=C(CN1CCN(c2ncccn2)CC1)N1CCc2c(ncnc2NCC2C3CC4CC(C3)CC2C4)C1 (stereo not drawn) [Compound 301] | 0 to 25 | 
19 | O=C(CN1CCN(c2ncncn2)CC1)N1CCc2c(ncnc2NCC2C3CC4CC(C3)CC2C4)C1 (stereo not drawn) [Compound 302] | 25 to 50 | 
20 | O=C(CN1CCN(CCn2cccc2)CC1)N1CCc2c(ncnc2NCC2C3CC4CC(C3)CC2C4)C1 (stereo not drawn) [Compound 303] | 25 to 50 | 
21 | COCCN(C)CC(=O)N1CCc2c(ncnc2NCC2C3CC4CC(C3)CC2C4)C1 (stereo not drawn) [Compound 304] | 25 to 50 | 

Row | SMILES | inhibition at 0.3 µM [%] | inhibition at 0.1 µM [%]
22 | CN(CC(=O)N1CCc2c(ncnc2NCC2C3CC4CC(C3)CC2C4)C1)Cc1ccc(Cl)cc1 (stereo not drawn) [Compound 306] | 25 to 50 | 
23 | COc1cccc(CN(C)CC(=O)N2CCc3c(ncnc3NCC3C4CC5CC(C4)CC3C5)C2)c1 (stereo not drawn) [Compound 308] | 0 to 25 | 
24 | CCc1ccc(CN(C)CC(=O)N2CCc3c(ncnc3NCC3C4CC5CC(C4)CC3C5)C2)cc1 (stereo not drawn) [Compound 309] | 25 to 50 | 
25 | O=C(CN1CCC(F)(F)CC1)N1CCc2c(ncnc2NCC2C3CC4CC(C3)CC2C4)C1 (stereo not drawn) [Compound 310] | 0 to 25 | 
26 | CN(CC(=O)N1CCc2c(ncnc2NCC2C3CC4CC(C3)CC2C4)C1)Cc1cccc(Cl)c1 (stereo not drawn) [Compound 311] | 25 to 50 | 
27 | CN(CC(=O)N1CCc2c(ncnc2NCC2C3CC4CC(C3)CC2C4)C1)Cc1ccc(F)cc1 (stereo not drawn) [Compound 312] | 0 to 25 | 
28 | CC(C)N(C)CC(=O)N1CCc2c(ncnc2NCC2C3CC4CC(C3)CC2C4)C1 (stereo not drawn) [Compound 313] | 0 to 25 | 
29 | CN1CCC(N(C)CC(=O)N2CCc3c(ncnc3NCC3C4CC5CC(C4)CC3C5)C2)C1 (stereo not drawn) [Compound 314] | 0 to 25 | 
30 | C[C@@H](c1ccccc1)N(C)CC(=O)N1CCc2c(ncnc2NCC2C3CC4CC(C3)CC2C4)C1 (stereo partly drawn) [Compound 315] | > 75 | 
31 | COc1ccc(CN(C)CC(=O)N2CCc3c(ncnc3NCC3C4CC5CC(C4)CC3C5)C2)cc1 (stereo not drawn) [Compound 316] | 25 to 50 | 
32 | CN(CC(=O)N1CCc2c(ncnc2NCC2C3CC4CC(C3)CC2C4)C1)Cc1ccc(C(F)(F)F)cc1 (stereo not drawn) [Compound 317] | 25 to 50 | 
33 | Cc1ccc(CN(C)CC(=O)N2CCc3c(ncnc3NCC3C4CC5CC(C4)CC3C5)C2)cc1 (stereo not drawn) [Compound 318] | 25 to 50 | 
34 | CN(CC(=O)N1CCc2c(ncnc2NCC2C3CC4CC(C3)CC2C4)C1)Cc1ccncc1 (stereo not drawn) [Compound 319] | 25 to 50 | 
35 | CN(CC(=O)N1CCc2c(ncnc2NCC2C3CC4CC(C3)CC2C4)C1)Cc1cccnc1 (stereo not drawn) [Compound 320] | 25 to 50 | 
36 | O=C(c1cccnc1)N1CCc2c(ncnc2NCC23CC4CC(CC(F)(C4)C2)C3)C1 [Compound 322] |  | 25 to 50
37 | Fc1ccc(CN2CCc3c(ncnc3NCC34CC5CC(CC(F)(C5)C3)C4)C2)c(F)c1 [Compound 323] |  | 50 to 75
38 | O=C(OCc1ccc(C(F)(F)F)cc1)N1CCc2c(ncnc2NCC23CC4CC(CC(C4)C2)C3)C1 [Compound 324] |  | 50 to 75
39 | O=C(OCc1ccc(F)cc1F)N1CCc2c(ncnc2NCC23CC4CC(CC(C4)C2)C3)C1 [Compound 325] |  | > 75
40 | OC12CC3CC(C1)CC(CNc1ncnc4c1CCN(Cc1ccccc1)C4)(C3)C2 [Compound 326, 3-[(7-Benzyl-5,6,7,8-tetrahydro-pyrido[3,4-d]pyrimidin-4-ylamino)-methyl]-adamantan-1-ol] |  | > 75
41 | O=C(OCc1ccc(F)cc1)N1CCc2c(ncnc2NCC23CC4CC(CC(C4)C2)C3)C1 [Compound 327] |  | 50 to 75
42 | O=C(OCc1cccnc1)N1CCc2c(ncnc2NCC23CC4CC(CC(C4)C2)C3)C1 [Compound 328] |  | 50 to 75

Row | SMILES | inhibition at 0.3 µM [%] | inhibition at 0.1 µM [%]
43 | CS(=O)(=O)c1ccc(COC(=O)N2CCc3c(ncnc3NCC34CC5CC(CC(C5)C3)C4)C2)cc1 [Compound 329] |  | 50 to 75
44 | Cc1cc(COC(=O)N2CCc3c(ncnc3NCC34CC5CC(CC(C5)C3)C4)C2)no1 [Compound 330] |  | 0 to 25
45 | O=C(OCc1cscn1)N1CCc2c(ncnc2NCC23CC4CC(CC(C4)C2)C3)C1 [Compound 331] |  | 0 to 25
46 | FC12CC3CC(C1)CC(CNc1ncnc4c1CCN(Cc1ccc5c(c1)OCCO5)C4)(C3)C2 [Compound 332] |  | 0 to 25
47 | N#Cc1cccc(C(=O)N2CCc3c(ncnc3NCC34CC5CC(CC(F)(C5)C3)C4)C2)c1 [Compound 333] |  | 25 to 50
48 | O=C(OCCSCc1ccccc1)N1CCc2c(ncnc2NCC23CC4CC(CC(C4)C2)C3)C1 [Compound 334] |  | 25 to 50
49 | O=C(SCc1ccc(F)cc1)N1CCc2c(ncnc2NCC23CC4CC(CC(C4)C2)C3)C1 [Compound 335] |  | 0 to 25
50 | O=C(OCc1ccco1)N1CCc2c(ncnc2NCC23CC4CC(CC(C4)C2)C3)C1 [Compound 336] |  | > 75
51 | O=C(OCc1ccccc1F)N1CCc2c(ncnc2NCC23CC4CC(CC(C4)C2)C3)C1 [Compound 337] |  | 0 to 25
52 | O=C(OCc1c(F)cccc1F)N1CCc2c(ncnc2NCC23CC4CC(CC(C4)C2)C3)C1 [Compound 338] |  | > 75
53 | O=C(OCc1ccccc1Cl)N1CCc2c(ncnc2NCC23CC4CC(CC(C4)C2)C3)C1 [Compound 339] |  | > 75
54 | O=C(OCc1ccoc1)N1CCc2c(ncnc2NCC23CC4CC(CC(C4)C2)C3)C1 [Compound 340] |  | 50 to 75
55 | O=C(OCC1CCCO1)N1CCc2c(ncnc2NCC23CC4CC(CC(C4)C2)C3)C1 (stereo not drawn) [Compound 341] |  | 50 to 75
56 | O=C(OCc1ccccn1)N1CCc2c(ncnc2NCC23CC4CC(CC(C4)C2)C3)C1 [Compound 342] |  | 0 to 25
57 | O=C(OCc1ccncc1)N1CCc2c(ncnc2NCC23CC4CC(CC(C4)C2)C3)C1 [Compound 343] |  | 0 to 25
58 | O=C(SCc1c(F)cccc1Cl)N1CCc2c(ncnc2NCC23CC4CC(CC(C4)C2)C3)C1 [Compound 344] |  | 25 to 50
59 | Cc1nn(-c2ccccc2)nc1COC(=O)N1CCc2c(ncnc2NCC23CC4CC(CC(C4)C2)C3)C1 [Compound 345] |  | 25 to 50
60 | O=C(OCc1ncoc1-c1ccccc1)N1CCc2c(ncnc2NCC23CC4CC(CC(C4)C2)C3)C1 [Compound 346] |  | 0 to 25
61 | Cc1cc(COC(=O)N2CCc3c(ncnc3NCC34CC5CC(CC(C5)C3)C4)C2)nn1C [Compound 347] |  | 50 to 75
62 | O=C(OCc1cnccn1)N1CCc2c(ncnc2NCC23CC4CC(CC(C4)C2)C3)C1 [Compound 348] |  | 25 to 50
63 | O=C(OCc1cncs1)N1CCc2c(ncnc2NCC23CC4CC(CC(C4)C2)C3)C1 [Compound 349] |  | 0 to 25
